Laboratory results taken from patent US20230096517A1, “GLUTARIMIDE SKELETON-BASED COMPOUNDS AND APPLICATION THEREOF” (SHANGHAITECH UNIVERSITY, priority 2020, published 2023).

System: MM.1S cells
Test: Proliferation inhibition (IC50) in multiple myeloma cells, cell viability with WST/CCK-8 reagent;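 further: MM.1S B-lymphoblast cells at 15,000 per well in 100 µL serum-containing RPMI1640, experiment run more than three times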
Conditions: Homo sapiens, MM1.S, 72 h, read-out: IC50 (half inhibitory concentration)
Description: Multiple myeloma cell line: MM.1S (B lymphoblast), purchased from ATCC (American Type Culture Collection). Culture medium was RPMI1640 supplemented with 10% FBS and 1% Penicillin-Streptomycin. The cells used were identified as correct cells by STR cells and negative for mycoplasma by routine inspections.
IC50 values of the compounds of the present disclosure were measured using Cell Titer Blue, Cell Titer GLO, or WST reagent from Promega Company. Assay details are as follows: Cells were seeded in 100 μL RPMI1640 complete medium containing serum at a density of 15,000 cells/well.
The experiment was repeated more than three times.

Point of comparison: `O=C1CCC(N2Cc3c(OCc4ccc(CCNC56CC7CC(CC(C7)C5)C6)cc4)cccc3C2=O)C(=O)N1` (centres unmarked) [SIAIS1241169, 3-(4-((4-(2-((adamantan-1-yl)amino)ethyl)benzyl)oxy)-1-oxoisoindolin-2-yl)piperidine-2,6-dione], IC50 123 pM. Against it:
- O=C1CCC(N2Cc3c(C#CCCCCCCCNC45CC6CC(CC(C6)C4)C5)cccc3C2=O)C(=O)N1 (centres unmarked) [SIAIS1222047, 3-(4-(9-((adamantan-1-yl)amino)non-1-yn-1-yl)-1-oxoisoindolin-2-yl)piperidine-2,6-dione] — 110-fold higher, 13000 pM
- O=C1CCC(N2Cc3c(CCc4ccc(CNC56CC7CC(CC(C7)C5)C6)cc4)cccc3C2=O)C(=O)N1 (centres unmarked) [SIAIS1222051, 3-(4-(4-(((adamantan-1-yl)amino)methyl)phenethyl)-1-oxoisoindolin-2-yl)piperidine-2,6-dione] — 33-fold higher, 4100 pM
- O=C1CCC(N2Cc3c(CCc4ccc(CNCC56CC7CC(CC(C7)C5)C6)cc4)cccc3C2=O)C(=O)N1 (centres unmarked) [SIAIS1222053, 3-(4-(4-((((adamantan-1-yl)methyl)amino)methyl)phenethyl)-1-oxoisoindolin-2-yl)piperidine-2,6-dione] — 13-fold higher, 1610 pM
- CC1(C)[C@@H]2CC[C@@]1(C)[C@@H](NCc1ccc(CCc3cccc4c3CN(C3CCC(=O)NC3=O)C4=O)cc1)C2 (stereo partly drawn) [SIAIS1222055, 3-(1-oxo-4-(4-((((1R,2S,4R)-1,7,7-trimethylbicyclo[2.2.1]heptan-2-yl)amino)methyl)phenethyl)isoindolin-2-yl)piperidine-2,6-dione] — 1.9-fold higher, 239 pM
- O=C1CCC(N2Cc3c(NCCCCCCNCC45CC6CC(CC(C6)C4)C5)cccc3C2=O)C(=O)N1 (centres unmarked) [SIAIS1222073, 3-(4-((6-(((adamantan-1-yl)methyl)amino)hexyl)amino)-1-oxoisoindolin-2-yl)piperidine-2,6-dione] — 10-fold higher, 1260 pM
- O=C1CCC(N2C(=O)c3cccc(NCCCCCCNC45CC6CC(CC(C6)C4)C5)c3C2=O)C(=O)N1 (centres unmarked) [SIAIS1222093, 4-((6-((adamantan-1-yl)amino)hexyl)amino)-2-(2,6-dioxopiperidin-3-yl)isoindoline-1,3-dione] — 13-fold higher, 1580 pM
- O=C1CCC(N2C(=O)c3cccc(NCCCCCNC45CC6CC(CC(C6)C4)C5)c3C2=O)C(=O)N1 (centres unmarked) [SIAIS1222095, 4-((5-((adamantan-1-yl)amino)pentyl)amino)-2-(2,6-dioxopiperidin-3-yl)isoindoline-1,3-dione] — 8.9-fold higher, 1100 pM
- O=C1CCC(N2Cc3c(OCCCCCCNC45CC6CC(CC(C6)C4)C5)cccc3C2=O)C(=O)N1 (centres unmarked) [SIAIS1222163, 3-(4-((6-((adamantan-1-yl)amino)hexyl)oxy)-1-oxoisoindolin-2-yl)piperidine-2,6-dione] — 17-fold higher, 2110 pM
- O=C1CCC(N2Cc3c(OCCCCCCNCC45CC6CC(CC(C6)C4)C5)cccc3C2=O)C(=O)N1 (centres unmarked) [SIAIS1222165, 3-(4-((6-(((adamantan-1-yl)methyl)amino)hexyl)oxy)-1-oxoisoindolin-2-yl)piperidine-2,6-dione] — 1.7-fold higher, 204 pM
- O=C1CCC(N2Cc3c(OCCCCCCCCNC45CC6CC(CC(C6)C4)C5)cccc3C2=O)C(=O)N1 (centres unmarked) [SIAIS1222167, 3-(4-((8-((adamantan-1-yl)amino)octyl)oxy)-1-oxoisoindolin-2-yl)piperidine-2,6-dione] — 3.5-fold higher, 426 pM
- CN(CCCCCCCOc1cccc2c1CN(C1CCC(=O)NC1=O)C2=O)C12CC3CC(CC(C3)C1)C2 (centres unmarked) [SIAIS1222181, 3-(4-((7-((adamantan-1-yl)(methyl)amino)heptyl)oxy)-1-oxoisoindolin-2-yl)piperidine-2,6-dione] — 2.4-fold lower, 52 pM
- O=C1CCC(N2C(=O)c3cccc(NCCCCCCCNC4CC5(CCC5)C4)c3C2=O)C(=O)N1 (centres unmarked) [SIAIS1222189, 2-(2,6-dioxopiperidin-3-yl)-4-((7-(spiro[3.3]heptan-2-ylamino)heptyl)amino)isoindoline-1,3-dione] — 2.6-fold higher, 324 pM
- CC(NCCCCCCNc1cccc2c1C(=O)N(C1CCC(=O)NC1=O)C2=O)C12CC3CC(CC(C3)C1)C2 (centres unmarked) [SIAIS1222191, 4-((6-((1-(adamantan-1-yl)ethyl)amino)hexyl)amino)-2-(2,6-dioxopiperidin-3-yl)isoindoline-1,3-dione] — 18-fold higher, 2220 pM
- CC(NCCCCCCCNc1cccc2c1C(=O)N(C1CCC(=O)NC1=O)C2=O)C12CC3CC(CC(C3)C1)C2 (centres unmarked) [SIAIS1222193] — 22-fold higher, 2690 pM
- O=C1CCC(N2Cc3c(OCCCCCCCNC4CC5(CCC5)C4)cccc3C2=O)C(=O)N1 (centres unmarked) [SIAIS1224013, 3-(1-oxo-4-((7-(spiro[3.3]heptan-2-ylamino)heptyl)oxy)isoindolin-2-yl)piperidine-2,6-dione] — 4.3-fold higher, 534 pM
- O=C1CCC(N2Cc3c(CCCCCCCNC45CC6CC(CC(C6)C4)C5)cccc3C2=O)C(=O)N1 (centres unmarked) [SIAIS1224041, 3-(4-(7-((adamantan-1-yl)amino)heptyl)-1-oxoisoindolin-2-yl)piperidine-2,6-dione] — 9-fold higher, 1110 pM
- O=C1CCC(N2Cc3c(CCCCCCNC45CC6CC(CC(C6)C4)C5)cccc3C2=O)C(=O)N1 (centres unmarked) [SIAIS1224043, 3-(4-(6-((adamantan-1-yl)amino)hexyl)-1-oxoisoindolin-2-yl)piperidine-2,6-dione] — 5.1-fold higher, 630 pM
- O=C1CCC(N2Cc3c(NCc4ccc(CCNC56CC7CC(CC(C7)C5)C6)cc4)cccc3C2=O)C(=O)N1 (centres unmarked) [SIAIS1227027, 3-(4-((4-(2-((adamantan-1-yl)amino)ethyl)benzyl)amino)-1-oxoisoindolin-2-yl)piperidine-2,6-dione] — 2.6-fold higher, 320 ± 90 pM
- O=C1CCC(N2Cc3c(NCc4ccc(CCCNC56CC7CC(CC(C7)C5)C6)cc4)cccc3C2=O)C(=O)N1 (centres unmarked) [SIAIS1227077, 3-(4-((4-(3-((adamantan-1-yl)amino)propyl)benzyl)amino)-1-oxoisoindolin-2-yl)piperidine-2,6-dione] — 16-fold higher, 1930 ± 310 pM
- O=C1CCC(N2Cc3c(OCc4ccc(CNC56CC7CC(CC(C7)C5)C6)cc4)cccc3C2=O)C(=O)N1 (centres unmarked) [SIAIS1228157, 3-(4-((4-(((adamantan-1-yl)amino)methyl)benzyl)oxy)-1-oxoisoindolin-2-yl)piperidine-2,6-dione] — 2.3-fold higher, 280 pM
- O=C1CCC(N2C(=O)c3cccc(OCc4ccc(CCNC56CC7CC(CC(C7)C5)C6)cc4)c3C2=O)C(=O)N1 (centres unmarked) [SIAIS1241167, 4-((4-(2-((adamantan-1-yl)amino)ethyl)benzyl)oxy)-2-(2,6-dioxopiperidin-3-yl)isoindoline-1,3-dione] — 16-fold higher, 1950 pM
- O=C1CCC(N2C(=O)c3cccc(NCCCCCCCNC45CC6CC(CC4C6)C5)c3C2=O)C(=O)N1 (centres unmarked) [SIAIS1242041, 2-(2,6-dioxopiperidin-3-yl)-4-((7-((hexahydro-2,5-methanopentalen-3a(1H)-yl)amino)heptyl)amino)isoindoline-1,3-dione] — 1.6-fold lower, 76 pM
- O=C1CCC(N2Cc3c(OCCCCCCCNC45CC6CC(CC4C6)C5)cccc3C2=O)C(=O)N1 (centres unmarked) [SIAIS1242043, 3-(4-((7-((hexahydro-2,5-methanopentalen-3a(1H)-yl)amino)heptyl)oxy)-1-oxoisoindolin-2-yl)piperidine-2,6-dione] — 1.8-fold lower, 69 pM
- O=C1CCC(N2Cc3c(C#CCCCCCCNC45CC6CC(CC4C6)C5)cccc3C2=O)C(=O)N1 (centres unmarked) [SIAIS1242057, 3-(4-(8-((hexahydro-2,5-methanopentalen-3a(1H)-yl)amino)oct-1-yn-1-yl)-1-oxoisoindolin-2-yl)piperidine-2,6-dione] — 2.2-fold higher, 267 pM
- O=C1CCC(N2Cc3c(NCc4ccc(CCNC56CC7CC(CC5C7)C6)cc4)cccc3C2=O)C(=O)N1 (centres unmarked) [SIAIS1242061, 3-(4-((4-(2-((hexahydro-2,5-methanopentalen-3a(1H)-yl)amino)ethyl)benzyl)amino)-1-oxoisoindolin-2-yl)piperidine-2,6-dione] — within 1.5-fold, 107 pM
- O=C1CCC(N2C(=O)c3ccc(NCCCCCCNC45CC6CC(CC(C6)C4)C5)cc3C2=O)C(=O)N1 (centres unmarked) [SIAIS1242067, 5-((6-((adamantan-1-yl)amino)hexyl)amino)-2-(2,6-dioxopiperidin-3-yl)isoindoline-1,3-dione] — 140-fold higher, 17700 pM
- O=C1CCC(N2C(=O)c3ccc(NCCCCCNC45CC6CC(CC(C6)C4)C5)cc3C2=O)C(=O)N1 (centres unmarked) [SIAIS1242069, 5-((5-((adamantan-1-yl)amino)pentyl)amino)-2-(2,6-dioxopiperidin-3-yl)isoindoline-1,3-dione] — 18-fold higher, 2270 pM
- O=C1CCC(N2Cc3c(NCCCCCCCNC45CC6CC(CC4C6)C5)cccc3C2=O)C(=O)N1 (centres unmarked) [SIAIS1242071, 3-(4-((7-((hexahydro-2,5-methanopentalen-3a(1H)-yl)amino)heptyl)amino)-1-oxoisoindolin-2-yl)piperidine-2,6-dione] — 20-fold higher, 2460 pM
- O=C1CCC(N2Cc3c(OCCCCCCC(=O)NC45CC6CC(CC(C6)C4)C5)cccc3C2=O)C(=O)N1 (centres unmarked) [SIAIS1242075, N-(adamantan-1-yl)-7-((2-(2,6-dioxopiperidin-3-yl)-1-oxoisoindolin-4-yl)oxy)heptanamide] — 7.1-fold higher, 877 pM
- O=C1CCC(N2C(=O)c3cccc(NCCCCCCC(=O)NC45CC6CC(CC(C6)C4)C5)c3C2=O)C(=O)N1 (centres unmarked) [SIAIS1242077, N-(adamantan-1-yl)-7-((2-(2,6-dioxopiperidin-3-yl)-1,3-dioxoisoindolin-4-yl)amino)heptanamide] — 2-fold higher, 241 pM
- Nc1cccc2c1C(=O)N(C1CCC(=O)NC1=O)C2=O (centres unmarked) [pomalidomide, reference compound] — 76-fold higher, 9400 ± 1300 pM
